Source: US20230174523A1, “BENZENESULFONAMIDE DERIVATIVES AS TRAP1 MODULATORS AND USES THEREOF” (Amathus Therapeutics, Inc., priority 2020, published 2023)

Legend:
[1] = tested on: primary rat TH+ dopaminergic neurons; assay: ROS production in primary TH+ dopaminergic neurons injured with MPP+; format: cell-based; settings: injury with MPP+ (4 μM, 4 h); FIG. 6
Description: (§1) Rat dopaminergic neurons were cultured as described by Visanji et al., 2008. Briefly, pregnant female rat of 15 days of gestation are sacrificed using a deep anesthesia with CO2 chamber and a cervical dislocation. The midbrains obtained from 15-day-old rat embryos are dissected under a microscope. The embryonic midbrains are removed and placed in ice-cold medium of Leibovitz (L15) containing 2% of Penicillin-Streptomycin (PS) and 1% of bovine serum albumin (BSA). The ventral portion of the mesencephalic flexure, a region of the developing brain rich in dopaminergic neurons, is used for the cell preparations.
The midbrains are dissociated by trypsinisation for 20 min at 37° C. (solution at a final concentration of 0.05% trypsin and 0.02% EDTA). […] Viable cells are counted in a Neubauer cytometer using the trypan blue exclusion test. […] Six wells per condition are assessed. […]
For each condition, 20 pictures at 10× magnification (plate 1) or 30 pictures at 20× magnification (representing the whole well area) were automatically taken using ImageXpress®. […] The following read-outs were measured: Analysis of total number of TH neurons (TH positive neuron number), Analysis of the ROS into TH positive neurons, Analysis of caspase 3 positive TH neurons, and Analysis of total neurite network of TH positive neurons (in μm).
All values are expressed as mean+/−SEM (standard error of the mean). […]

[2] = tested on: primary rat dopaminergic neurons; assay: ROS production in primary dopaminergic TH-positive neurons injured with 6-OHDA; format: cell-based; settings: injury with 6-OHDA (20 μM, 4 h); FIG. 5
Description: as §1
The midbrains are dissociated by trypsinisation for 20 min at 37° C. (solution at a final concentration of 0.05% trypsin and 0.02% EDTA). The reaction is stopped by the addition of Dulbecco's modified Eagle's medium (DMEM) containing DNAase I grade II (0.5 mg/mL) and 10% of foetal calf serum (FCS). Cells are then mechanically dissociated by 3 passages through a 10 mL pipette. Cells are then centrifuged at 180×g for 10 min at +4° C. on a layer of BSA (3.5%) in L15 medium. […] Viable cells are counted in a Neubauer cytometer using the trypan blue exclusion test. […] Six wells per condition are assessed. […]

## Cc1nn(C)c2sc(C(=O)Nc3ccc(F)c(S(=O)(=O)Nc4ccc(Cl)cc4)c3)cc12 [Compound 705]
[1]
  reactive oxygen species (ROS) production: reduction of ROS
[2]
  reactive oxygen species (ROS) production: reduction in ROS
